Results from patent US20110098278A1 (priority 2009, published 2011).
“And” between values parts separate entries of the source, which are not always exact repeats. Equal values may be shown once. “Also recorded” adds a separate entry of the source. Where a name gives a salt, the structure may show the parent alone.

Legend:
[1] = tested on: rat; assay: Comparative acute toxicity (rat behavior) of sc and po galantamine; format: in vivo; settings: individual rats
[2] = tested on: ferret; assay: Emetic activity (retching and vomiting) in the ferret
[3] = Local galantamine concentration within the stomach after a typical dose; settings: following a typical 24 mg dose
[4] = tested on: rabbit stomach circular smooth muscle; assay: Ex vivo rabbit stomach circular smooth muscle, electrical field stimulation; format: cell-based; settings: rabbit stomach strips under EFS; 100 nM to 100 μM
[5] = tested on: Sprague Dawley rat; assay: PICA behavior (kaolin consumption) in the Sprague Dawley rat as surrogate for emesis; format: in vivo; settings: for Cumulative mean ± SD kaolin consumption: 40 mg base/kg po
Method: This is a well established model for this purpose in the rat (Takeda N et al (1993) 45 817-21).
Once determined, a comparison was made of the effects of these doses on kaolin consumption over a 0-96 hour period in 24 h increments.
In detail groups of 10 male Sprague Dawley rats were habituated to kaolin for 3 days, then singly housed in grid-bottomed cages and habituated for a further 2 days prior to dosing. On the day of drug administration, the animals were food-deprived for 1 h prior to dosing. […] Access to a weighed quantity of food and kaolin was then restored. Food and kaolin was weighed 24, 48, 72 and 96 h after dosing.

[6] = tested on: human stomach circular smooth muscle; assay: Ex vivo human stomach circular smooth muscle, electrical field stimulation; format: cell-based; settings: human stomach strips under EFS; 100 nM to 100 μM
[7] = 20 mg (free base)/kg oral or similar molar dose
[8] = 20 mg/kg p.o., 2 hr. observation, individual ferrets, listed as Galantamine HBr, hydrobromide

## COc1ccc2c3c1O[C@H]1C[C@@H](O)C=C[C@@]31CCN(C)C2 [Galantamine, (4aS,6R,8aS)-4a,5,9,10,11,12-hexahydro-3-methoxy-11-methyl-6H-benzofuro[3a,3,2ef][2]benzazepin-6-ol hydrobromide]
[1]; 3.5 mg/kg sc, 2 min post dose, hydrobromide
  Effect on rat behavior: Rat 1: purposeless chewing, mouth; also recorded: Rat 3: purposeless chewing, mouth
[1]; 3.5 mg/kg sc, 5 min post-dose, hydrobromide
  Effect on rat behavior: Rat 1: purposeless chewing, mouth movements,; also recorded: Rat 3: As per 2 min
[1]; 3.5 mg/kg sc, 10 min post-dose, hydrobromide
  Effect on rat behavior: Rat 1: Tremors, flattened rostral body; also recorded: Rat 3: purposeless chewing, mouth
[1]; 3.5 mg/kg sc, 20 min post-dose, hydrobromide
  Effect on rat behavior: Rat 1: Quiescent, flattened body posture,; also recorded: Rat 3: Some ambulation restored symptoms
[1]; 3.5 mg/kg sc, 30 min post-dose, hydrobromide
  Effect on rat behavior: Rat 1: Quiescent, flattened body posture,; also recorded: Rat 3: Some ambulation restored
[1]; 3.5 mg/kg sc, 45 min post-dose
  Effect on rat behavior: Rat 1: food consumption and more
[1]; 3.5 mg/kg sc, 1 h, hydrobromide
  Effect on rat behavior: Rat 1: Normal; also recorded: Rat 3: Normal
[1]; 40 mg/kg po, 10 min post-dose, hydrobromide
  Effect on rat behavior: Rat 6: Quiescent, purposeless; also recorded: Rat 7: Quiescent, purposeless chewing,
[1]; 40 mg/kg po, 20 min post-dose, hydrobromide
  Effect on rat behavior: Rate 6 as per 10 min + arching; also recorded: Rat 7: grooming + purposeless
[1]; 40 mg/kg po, 30 min post-dose
  Effect on rat behavior: Rat 6: quiescent, purposeless chewing,
[1]; 40 mg/kg po, 45 min post-dose, hydrobromide
  Effect on rat behavior: Rat 6: flattened body posture, chewing,; also recorded: Rat 7: grooming, sawdust consumption
[1]; 40 mg/kg po, 1 h, hydrobromide
  Effect on rat behavior: Rat 6: flattened body posture, tremor; also recorded: Rat 7: Grooming, sawdust
[1]; 40 mg/kg po, 1.5 h, hydrobromide
  Effect on rat behavior: Rat 7: quiet, falttened posture
[1]; 40 mg/kg po, 2 h, hydrobromide
  Effect on rat behavior: Rat 6: much improved; also recorded: Rat 7: much improved
[1]; 40 mg/kg po, 3 h, hydrobromide
  Effect on rat behavior: Rat 6: normal; also recorded: Rat 7: normal
[2]; [7]
  animals dosed that retched: 55%
  animals dosed that vomited: 40%
[2]; 20 mg/kg p.o. (galantamine free base content), 2 hr. observation, individual ferrets, listed as Galantamine HBr, hydrobromide
  Total number of individual incidences of: Retching: 21 and 29 and 18 and 0 (9×) and 31 and 3 (2×) and 6 and 2 and 5 and 13 and 22
[2]; [8]
  Time (min) to onset of: Retching: 33 min and 3 min and 5 min (3×) and >120 min (8×) and 41 min and 11 min and 10 min and 7 min (2×) and 6 min (2×)
  Time (min) to onset of: Vomiting: 33 min and 75 min and 5 min (2×) and >120 min (11×) and 37 min and 10 min and 13 min and 6 min and 41 min
  Total number of individual incidences of: Vomiting: 4 (2×) and 1 (6×) and 0 (11×) and 2
[3]
  Local concentrations within the stomach: 200 to 400 µM
[4]
  stimulation of smooth muscle contractions (change in force production): evidence of a dose response
[5]; 3.5 mg/kg subcutaneous, over the whole 96 h period
  kaolin consumption compared with controls (in words): no increase at all in kaolin consumption
[5]; 24 h
  Cumulative mean ± SD kaolin consumption: 2.73 ± 1.4 g
[5]; 48 h
  Cumulative mean ± SD kaolin consumption: 3.36 ± 1.68 g
[5]; 72 h
  Cumulative mean ± SD kaolin consumption: 4.07 ± 1.88 g
[5]; 96 h, hydrobromide
  Cumulative mean ± SD kaolin consumption: 4.69 ± 2.43 g
[5]; 96 h, listed as galantamine, hydrobromide
  Cumulative mean ± SD kaolin consumption: 4.69 ± 2.43 g
[5]; 40 mg/kg oral, over 96 h, hydrobromide
  kaolin consumption / PICA behavior (in words): significantly higher; also recorded: marked PICA behavior
[5]; single oral dose 40 mg base/kg, Mean
  rat kaolin consumption (g) over 24 h post-dose: 1.79 g
[5]; single oral dose 40 mg base/kg, individual rats 1-10, hydrobromide
  rat kaolin consumption (g) over 24 h post-dose: 1.06 g and 0.35 g and 0.02 g and 3.14 g and 4.47 g and 1.62 g and 0.16 g and 2.93 g and 3.11 g and 1.03 g
[5]; single subcutaneous dose of 3.5 mg base/kg, Mean (rat 7 omitted as outlier)
  rat kaolin consumption (g) over 24 h post-dose: 0.25 g
[5]; single subcutaneous dose of 3.5 mg base/kg, individual rats 1-10, hydrobromide
  rat kaolin consumption (g) over 24 h post-dose: 0.67 g and 0.36 g and 0.88 g and 0.08 g and *1.57 g and 0.00 g (3×) and 0.21 g and 0.05 g
[6]
  stimulation of smooth muscle contractions (change in force production): evidence of a dose response
